Measured values published in patent US20020137929A1, “1 - (3-heterocyclylphenyl) isothiourea, -isourea, -guanidine and -amidine herbicidal agents” (Intellectual Property Department, BASF Aktiengesellschaft, priority 1998, published 2002).

Assays:
[1] = system: IPOHE (Morningglory, Ivyleaf); test: Preemergence herbicidal evaluation; assay type: in vivo, Ipomoea hederacea; conditions: rated 4-5 weeks after treatment
Outline: (§1)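 Visual 0-9 rating vs control (stand, vigor, malformation, size, chlorosis, overall appearance), scored 4-5 wk after spraying. Seeded soil cups were treated preemergence with compound in aqueous acetone, ~0.0156-0.500 kg/ha equivalent.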

ABUTH (Velvetleaf) [2] = test: Preemergence herbicidal evaluation; assay type: in vivo, Abutilon theophrasti; conditions: rated 4-5 weeks after treatment
Outline: as §1

ZEAMX (Corn, Field) = test: Postemergence herbicidal evaluation; assay type: in vivo, Zea mays; conditions: postemergence
Outline: (§2)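 Seedlings grown about two weeks were sprayed at 40 psi with compound dispersed in 50/50 acetone/water plus 0.5% TWEEN 20, at about 0.0156 to 0.500 kg/ha. Plants were kept in the greenhouse and scored 4–5 weeks later on a 0–9 visual scale against untreated controls.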

[3] = system: GLXMAW (Soybean, Williams); test: Postemergence herbicidal evaluation; assay type: in vivo, Glycine max, (L.) Merr. cv Williams; conditions: postemergence
Outline: as §2

ABUTH (Velvetleaf) [4] = test: Postemergence herbicidal evaluation; assay type: in vivo, Abutilon theophrasti; conditions: postemergence
Outline: as §2

ECHCG (Barnyardgrass) = test: Preemergence herbicidal evaluation; assay type: in vivo, Echinochloa crus-galli; conditions: rated 4-5 weeks after treatment
Outline: as §1

[5] = system: IPOHE (Morningglory, Ivyleaf); test: Postemergence herbicidal evaluation; assay type: in vivo, Ipomoea hederacea; conditions: postemergence
Outline: as §2

SETVI (Foxtail, Green) = test: Postemergence herbicidal evaluation; assay type: in vivo, Setaria viridis; conditions: postemergence
Outline: as §2

[6] = system: ECHORC (Watergrass (Calif.)); test: Preemergence weed control under flooded paddy conditions; assay type: in vivo, Echinochloa oryzoides; conditions: rated 3-4 weeks after treatment
Outline: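 Herbicidal effect is scored visually on a 0-9 scale against an untreated control, three to four weeks after compounds are pipetted into the flood water (1.5 to 3 cm deep) over seeds planted in silt loam at 0.5 cm depth. Rates: about 0.0313 to 0.500 kg/ha.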

CYPSE (Flatsedge) = test: as above; assay type: in vivo, Cyperus serotinus; conditions: rated 3-4 weeks after treatment
Outline: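 Using flooded silt loam (water 1.5 to 3 cm deep), seeds sown in the top 0.5 cm were exposed preemergence to compound pipetted into the flood at about 0.0313 to 0.500 kg/ha. Effects were scored 0-9 by eye three to four weeks later.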

AMBEL (Ragweed, Common) = test: Preemergence herbicidal evaluation; assay type: in vivo, Ambrosia artemisifolia; conditions: rated 4-5 weeks after treatment
Outline: as §1

CASOB (Sicklepod) = test: Preemergence herbicidal evaluation; assay type: in vivo, Cassia obtusifolia; conditions: rated 4-5 weeks after treatment
Outline: as §1

[7] = rate 0.0313 kg/ha, rating scale 0-9
[8] = rate 0.0625 kg/ha, rating scale 0-9
[9] = rate 0.1250 kg/ha, rating scale 0-9
[10] = rate 0.2500 kg/ha, rating scale 0-9
[11] = rate 0.0156 kg/ha, rating scale 0-9

COCCOC(=O)CN1C(=O)CSC1=Nc1cc(-n2c(=O)cc(C(F)(F)F)n(C)c2=O)c(F)cc1Cl [Compound 107, 2-Methoxyethyl 2-{{2-chloro-5-[3,6-dihydro-3-methyl-2,6-dioxo-4-(trifluoromethyl)-1(2H)-pyrimidinyl]-4-fluorophenyl}imino}-4-oxo-3-thiazolidineacetate]
9.0: Preemergence herbicidal rating ABUTH (ABUTH (Velvetleaf) [2]; rate 0.1250 kg/ha) | Preemergence herbicidal rating ABUTH (ABUTH (Velvetleaf) [2]; rate 0.2500 kg/ha) | herbicidal rating ABUTH (ABUTH (Velvetleaf) [4]; rate 0.0158 kg/ha) | herbicidal rating ABUTH (ABUTH (Velvetleaf) [4]; rate 0.0630 kg/ha) | herbicidal rating IPOHE ([5]; rate 0.0158 kg/ha) | herbicidal rating IPOHE ([5]; rate 0.0630 kg/ha) | herbicidal rating SETVI (SETVI (Foxtail, Green); rate 0.0315 kg/ha) | herbicidal rating SETVI (SETVI (Foxtail, Green); rate 0.0630 kg/ha)
5.0: herbicidal rating GLXMAW ([3]; rate 0.0315 kg/ha)
7.0: Preemergence herbicidal rating IPOHE ([1]; rate 0.2500 kg/ha) | herbicidal rating ZEAMX (ZEAMX (Corn, Field); rate 0.0630 kg/ha) | herbicidal rating ABUTH (ABUTH (Velvetleaf) [4]; rate 0.0315 kg/ha) | herbicidal rating IPOHE ([5]; rate 0.0315 kg/ha)
4.5: herbicidal rating GLXMAW ([3]; rate 0.0158 kg/ha)
6.0: herbicidal rating ZEAMX (ZEAMX (Corn, Field); rate 0.0315 kg/ha)
1.0: Preemergence herbicidal rating IPOHE ([1]; rate 0.1250 kg/ha) | Preemergence herbicidal rating ABUTH (ABUTH (Velvetleaf) [2]; rate 0.0625 kg/ha) | Preemergence herbicidal rating ECHCG (ECHCG (Barnyardgrass); rate 0.2500 kg/ha) | herbicidal rating SETVI (SETVI (Foxtail, Green); rate 0.0158 kg/ha) | Preemergence herbicidal rating CASOB (CASOB (Sicklepod); rate 0.2500 kg/ha)
2.0: Preemergence herbicidal rating AMBEL (AMBEL (Ragweed, Common); rate 0.2500 kg/ha)
4.0: herbicidal rating ZEAMX (ZEAMX (Corn, Field); rate 0.0158 kg/ha) | ECHORC herbicidal effect rating ([6]; 0.0625 kg/ha) | ECHORC herbicidal effect rating ([6]; 0.1250 kg/ha) | ECHORC herbicidal effect rating ([6]; 0.2500 kg/ha)
5.5: herbicidal rating GLXMAW ([3]; rate 0.0630 kg/ha)
0.0: Preemergence herbicidal rating IPOHE ([1]; rate 0.0313 kg/ha) | Preemergence herbicidal rating IPOHE ([1]; rate 0.0625 kg/ha) | Preemergence herbicidal rating ABUTH (ABUTH (Velvetleaf) [2]; rate 0.0313 kg/ha) | Preemergence herbicidal rating ECHCG (ECHCG (Barnyardgrass); rate 0.0313 kg/ha) | Preemergence herbicidal rating ECHCG (ECHCG (Barnyardgrass); rate 0.0625 kg/ha) | Preemergence herbicidal rating ECHCG (ECHCG (Barnyardgrass); rate 0.1250 kg/ha) | ECHORC herbicidal effect rating ([6]; 0.0313 kg/ha) | CYPSE herbicidal effect rating (CYPSE (Flatsedge); 0.0313 kg/ha) | CYPSE herbicidal effect rating (CYPSE (Flatsedge); 0.0625 kg/ha) | CYPSE herbicidal effect rating (CYPSE (Flatsedge); 0.1250 kg/ha) | Preemergence herbicidal rating AMBEL (AMBEL (Ragweed, Common); rate 0.0313 kg/ha) | Preemergence herbicidal rating AMBEL (AMBEL (Ragweed, Common); rate 0.0625 kg/ha) | Preemergence herbicidal rating AMBEL (AMBEL (Ragweed, Common); rate 0.1250 kg/ha) | Preemergence herbicidal rating CASOB (CASOB (Sicklepod); rate 0.0313 kg/ha) | Preemergence herbicidal rating CASOB (CASOB (Sicklepod); rate 0.0625 kg/ha) | Preemergence herbicidal rating CASOB (CASOB (Sicklepod); rate 0.1250 kg/ha)

Cn1c(C(F)(F)F)cc(=O)n(-c2cc(N=C3SCC(=O)N3Cc3ccc(Br)cc3)c(Cl)cc2F)c1=O [Compound 148, 3-{5-{[3-(p-Bromobenzyl)-4-oxo-2-thiazolidinyl-idene]amino}-4-chloro-2-fluorophenyl}-1-methyl-6-(trifluoromethyl)-2,4(1H,3H)-pyrimidinedione]
1.0: Preemergence herbicidal rating ABUTH (ABUTH (Velvetleaf) [2]; [8])
5.0: herbicidal rating ZEAMX (ZEAMX (Corn, Field); rate 0.0625 kg/ha) | herbicidal rating GLXMAW ([3]; rate 0.0313 kg/ha) | herbicidal effect rating, CYPSE (CYPSE (Flatsedge); 0.2500 kg/ha)
6.0: herbicidal effect rating, ECHORC ([6]; 0.0313 kg/ha)
0.0: Preemergence herbicidal rating IPOHE [1, 7] | Preemergence herbicidal rating IPOHE [1, 8] | Preemergence herbicidal rating IPOHE [1, 9] | Preemergence herbicidal rating IPOHE [1, 10] | Preemergence herbicidal rating ABUTH (ABUTH (Velvetleaf) [2]; [7]) | Preemergence herbicidal rating ECHCG (ECHCG (Barnyardgrass); [7]) | Preemergence herbicidal rating ECHCG (ECHCG (Barnyardgrass); [8]) | Preemergence herbicidal rating ECHCG (ECHCG (Barnyardgrass); [9]) | Preemergence herbicidal rating ECHCG (ECHCG (Barnyardgrass); [10]) | herbicidal effect rating, CYPSE (CYPSE (Flatsedge); 0.0313 kg/ha) | herbicidal effect rating, CYPSE (CYPSE (Flatsedge); 0.1250 kg/ha) | Preemergence herbicidal rating AMBEL (AMBEL (Ragweed, Common); [7]) | Preemergence herbicidal rating AMBEL (AMBEL (Ragweed, Common); [8]) | Preemergence herbicidal rating AMBEL (AMBEL (Ragweed, Common); [9]) | Preemergence herbicidal rating CASOB (CASOB (Sicklepod); [7]) | Preemergence herbicidal rating CASOB (CASOB (Sicklepod); [8]) | Preemergence herbicidal rating CASOB (CASOB (Sicklepod); [9]) | Preemergence herbicidal rating CASOB (CASOB (Sicklepod); [10])
7.0: herbicidal effect rating, ECHORC ([6]; 0.0625 kg/ha)
4.0: Preemergence herbicidal rating ABUTH (ABUTH (Velvetleaf) [2]; [9]) | Preemergence herbicidal rating ABUTH (ABUTH (Velvetleaf) [2]; [10]) | herbicidal rating ZEAMX (ZEAMX (Corn, Field); rate 0.0156 kg/ha) | herbicidal rating ZEAMX (ZEAMX (Corn, Field); rate 0.0313 kg/ha) | herbicidal rating SETVI (SETVI (Foxtail, Green); rate 0.0625 kg/ha) | Preemergence herbicidal rating AMBEL (AMBEL (Ragweed, Common); [10])
2.0: herbicidal rating SETVI (SETVI (Foxtail, Green); rate 0.0156 kg/ha) | herbicidal rating SETVI (SETVI (Foxtail, Green); rate 0.0313 kg/ha)
9.0: herbicidal rating ABUTH (ABUTH (Velvetleaf) [4]; rate 0.0156 kg/ha) | herbicidal rating ABUTH (ABUTH (Velvetleaf) [4]; rate 0.0313 kg/ha) | herbicidal rating ABUTH (ABUTH (Velvetleaf) [4]; rate 0.0625 kg/ha) | herbicidal rating IPOHE ([5]; rate 0.0156 kg/ha) | herbicidal rating IPOHE ([5]; rate 0.0313 kg/ha) | herbicidal rating IPOHE ([5]; rate 0.0625 kg/ha) | herbicidal effect rating, ECHORC ([6]; 0.1250 kg/ha) | herbicidal effect rating, ECHORC ([6]; 0.2500 kg/ha)
4.5: herbicidal rating GLXMAW ([3]; rate 0.0156 kg/ha)
6.5: herbicidal rating GLXMAW ([3]; rate 0.0625 kg/ha)

Cn1c(C(F)(F)F)cc(=O)n(-c2cc(N=C3SCC(=O)N3Cc3ccc(Cl)cc3)c(Cl)cc2F)c1=O [Compound 145, 3-{4-Chloro-5-{[3-(p-chlorobenzyl)-4-oxo-2-thiazolidinylidene]amino}-2-fluorophenyl}-1-methyl-6-(trifluoromethyl)-2,4(1H,3H)-pyrimidinedione]
1.0: Preemergence herbicidal rating ECHCG (ECHCG (Barnyardgrass); [8]) | Preemergence herbicidal rating ECHCG (ECHCG (Barnyardgrass); [9]) | Preemergence herbicidal rating ECHCG (ECHCG (Barnyardgrass); [10]) | herbicidal rating SETVI (SETVI (Foxtail, Green); rate 0.0156 kg/ha) | Preemergence herbicidal rating CASOB (CASOB (Sicklepod); [11]) | Preemergence herbicidal rating CASOB (CASOB (Sicklepod); [7]) | Preemergence herbicidal rating CASOB (CASOB (Sicklepod); [9])
6.0: Preemergence herbicidal rating ABUTH (ABUTH (Velvetleaf) [2]; [10]) | herbicidal effect rating, ECHORC ([6]; 0.0313 kg/ha) | herbicidal effect rating, ECHORC ([6]; 0.0625 kg/ha) | Preemergence herbicidal rating CASOB (CASOB (Sicklepod); [8])
0.0: Preemergence herbicidal rating IPOHE [1, 11] | Preemergence herbicidal rating IPOHE [1, 7] | Preemergence herbicidal rating IPOHE [1, 8] | Preemergence herbicidal rating ABUTH (ABUTH (Velvetleaf) [2]; [11]) | Preemergence herbicidal rating ECHCG (ECHCG (Barnyardgrass); [11]) | Preemergence herbicidal rating ECHCG (ECHCG (Barnyardgrass); [7]) | Preemergence herbicidal rating AMBEL (AMBEL (Ragweed, Common); [11]) | Preemergence herbicidal rating AMBEL (AMBEL (Ragweed, Common); [7])
2.0: Preemergence herbicidal rating ABUTH (ABUTH (Velvetleaf) [2]; [7]) | Preemergence herbicidal rating AMBEL (AMBEL (Ragweed, Common); [8])
4.0: herbicidal rating ZEAMX (ZEAMX (Corn, Field); rate 0.0156 kg/ha) | herbicidal rating ZEAMX (ZEAMX (Corn, Field); rate 0.0313 kg/ha)
7.0: Preemergence herbicidal rating IPOHE [1, 9] | herbicidal effect rating, ECHORC ([6]; 0.1250 kg/ha) | herbicidal effect rating, ECHORC ([6]; 0.2500 kg/ha) | Preemergence herbicidal rating AMBEL (AMBEL (Ragweed, Common); [10]) | Preemergence herbicidal rating CASOB (CASOB (Sicklepod); [10])
9.0: Preemergence herbicidal rating ABUTH (ABUTH (Velvetleaf) [2]; [9]) | herbicidal rating ABUTH (ABUTH (Velvetleaf) [4]; rate 0.0156 kg/ha) | herbicidal rating ABUTH (ABUTH (Velvetleaf) [4]; rate 0.0313 kg/ha) | herbicidal rating ABUTH (ABUTH (Velvetleaf) [4]; rate 0.0625 kg/ha) | herbicidal rating IPOHE ([5]; rate 0.0156 kg/ha) | herbicidal rating IPOHE ([5]; rate 0.0313 kg/ha) | herbicidal rating IPOHE ([5]; rate 0.0625 kg/ha) | herbicidal effect rating, CYPSE (CYPSE (Flatsedge); 0.1250 kg/ha) | herbicidal effect rating, CYPSE (CYPSE (Flatsedge); 0.2500 kg/ha)
3.0: Preemergence herbicidal rating ABUTH (ABUTH (Velvetleaf) [2]; [8]) | herbicidal rating SETVI (SETVI (Foxtail, Green); rate 0.0313 kg/ha)
5.0: Preemergence herbicidal rating IPOHE [1, 10] | herbicidal rating ZEAMX (ZEAMX (Corn, Field); rate 0.0625 kg/ha) | herbicidal rating GLXMAW ([3]; rate 0.0313 kg/ha) | herbicidal rating SETVI (SETVI (Foxtail, Green); rate 0.0625 kg/ha) | Preemergence herbicidal rating AMBEL (AMBEL (Ragweed, Common); [9])
5.5: herbicidal rating GLXMAW ([3]; rate 0.0625 kg/ha)
4.5: herbicidal rating GLXMAW ([3]; rate 0.0156 kg/ha)
